IC50 data for six molecules are collected here from patent US8575150B2, “Triazole derivatives for treatment of Alzheimer's disease” (Merck Sharp & Dohme Corp., priority 2008, dated 2013).

The test addresses T1, γ-secretase, Aβ(1-42) production in SH-SY5Y neuroblastoma cells overexpressing SPA4CT (Homo sapiens, UniProt P49768).
T1 construct: Human SH-SY5Y neuroblastoma cells overexpressing the direct γ-secretase substrate SPA4CT; endogenous in cells; host or cells: human SH-SY5Y neuroblastoma cells, transfected only with the substrate SPA4CT and induced with sodium butyrate
Nature of the test: Cell-based γ-secretase assay, Aβ(42) detection. To be noted: overnight incubation. How it is done: Cell-Based γ-Secretase Assay
Human SH-SY5Y neuroblastoma cells overexpressing the direct γ-secretase substrate SPA4CT were induced with sodium butyrate (10 mM) for 4 hours prior to plating. Cells were plated at 35,000 cells/well/100 μl in 96-well plates in phenol red-free MEM/10% FBS, 50 mM HEPES, 1% Glutamine and incubated for 2 hrs at 37° C., 5% CO2.
Appropriate vehicle and inhibitor controls were used to determine the window of the assay.
After incubation overnight at 37° C., 5% CO2, 25 μl and […] were transferred into a standard Meso avidin-coated 96-well plate for detection of Aβ(40) and Aβ(42) peptides, respectively. 25 μl Meso Assay buffer (PBS, 2% BSA, 0.2% Tween-20) was added to the Aβ(40) wells followed by the addition of 25 μl of the respective antibody premixes to the wells:
Aβ(42) premix: 1 μg/mlruthenylated G2-11 antibody, 4 μg/ml; and biotinylated 4G8 antibody diluted in Origen buffer
(Biotinylated 4G8 antibody supplied by Signet Pathology Ltd; G2-10 and G2-11 antibodies supplied by Chemicon)
After overnight incubation of the assay plates on a shaker at 4° C., the Meso Scale Sector 6000 Imager was calibrated according to the manufacturer's instructions. After washing the plates 3 times with 150 μl of PBS per well, 150 μl Meso Scale Discovery read buffer was added to each well and the plates were read on the Sector 6000 Imager according to the manufacturer's instructions.
The total signal and the background were defined by the corresponding Me2SO and inhibitor controls.
As to `O=C1C(n2cc(-c3ccc(-c4ccnnc4)cc3)nn2)CCc2c(F)cccc2N1CC(F)(F)F` (racemic) [Example 123, (R) and (S)-6-fluoro-3-[4-(4-pyridazin-4-ylphenyl)-1H-1,2,3-triazol-1-yl]-1-(2,2,2-trifluoroethyl)-1,3,4,5-tetrahydro-2H-1-benzazepin-2-one], the IC50 (commonly the midpoint of a concentration-inhibition curve) amounted to 83 nM. This counts as double-digit nanomolar.

The molecule `COc1cc(-c2cn(C3CCc4ccccc4N(CC(F)(F)F)C3=O)nn2)ccc1-c1ccncc1` (stereo not drawn) [Example 1, 3-[4-(3-methoxy-4-pyridin-4-ylphenyl)-1H-1,2,3-triazol-1-yl]-1-(2,2,2-trifluoroethyl)-1,3,4,5-tetrahydro-2H-1-benzazepin-2-one] displayed an IC50 of 80 nM. This IC50 and that of the molecule before are within 1.5-fold of each other.

Consider `O=C1C(n2cc(-c3ncc(-c4ccncc4)cn3)nn2)CCc2c(F)cccc2N1CC(F)(F)F` (stereo not drawn) [Example 2, 6-fluoro-3-{4-[5-(pyridin-4-yl)pyrimidin-2-yl]-1H-1,2,3-triazol-1-yl}-1-(2,2,2-trifluoroethyl)-1,3,4,5-tetrahydro-2H-1-benzazepin-2-one], for which inhibition was half-maximal at 1330 nM (IC50). This IC50 lies about 17-fold higher than the previous one.

Consider `COc1cc(-c2nc(C)no2)ccc1-c1cn(C2CCc3c(F)cccc3N(CC(F)(F)F)C2=O)nn1` (stereo not drawn) [Example 57, 6-fluoro-3-{4-[2-methoxy-4-(3-methyl-1,2,4-oxadiazol-5-yl)phenyl]-1H-1,2,3-triazol-1-yl}-1-(2,2,2-trifluoroethyl)-1,3,4,5-tetrahydro-2H-1-benzazepin-2-one], for which the IC50 was found to be 431 nM.

In the case of `O=C1C(n2cc(-c3ccc(Oc4cccnc4)cc3)nn2)CCc2c(F)cccc2N1CC(F)(F)F` (stereo not drawn) [Example 61, 6-fluoro-3-{4-[4-(pyridin-3-yloxy)phenyl]-1H-1,2,3-triazol-1-yl}-1-(2,2,2-trifluoroethyl)-1,3,4,5-tetrahydro-2H-1-benzazepin-2-one], the IC50 came out at 537 nM.

Molecule `COc1cc(-c2cn(C3CCc4c(F)cccc4N(CC(F)(F)F)C3=O)nn2)ccc1Nc1cccnc1` (stereo not drawn) [Example 92, 6-fluoro-3-{4-[3-methoxy-4-(pyridin-3-ylamino)phenyl]-1H-1,2,3-triazol-1-yl}-1-(2,2,2-trifluoroethyl)-1,3,4,5-tetrahydro-2H-1-benzazepin-2-one] came in with an IC50 of 226 nM.
